Experimental data from PMC5956890 (Journal of medicinal chemistry, 2017).
Structures can show the parent of a compound that is named as a salt.

Tests used:
PPARα = target: T1, PPARα (Homo sapiens, UniProt Q07869); assay: TR-FRET competitive binding assay PPARα; conditions: up to 20 µM
T1 sequence (Q07869 200-468 limits assumed): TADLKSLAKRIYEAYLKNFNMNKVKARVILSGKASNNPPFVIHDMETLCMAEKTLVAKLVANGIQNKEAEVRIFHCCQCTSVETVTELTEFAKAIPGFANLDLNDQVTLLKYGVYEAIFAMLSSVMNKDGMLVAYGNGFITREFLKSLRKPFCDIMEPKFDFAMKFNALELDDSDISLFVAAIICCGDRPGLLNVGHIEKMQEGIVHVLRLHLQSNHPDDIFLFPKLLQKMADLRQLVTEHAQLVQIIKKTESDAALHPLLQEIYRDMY

PPARγ = target: T2, PPARγ (Homo sapiens, UniProt P37231); assay: TR-FRET competitive binding assay PPARγ; conditions: concentration-response
T2 sequence (P37231 235-505 limits assumed): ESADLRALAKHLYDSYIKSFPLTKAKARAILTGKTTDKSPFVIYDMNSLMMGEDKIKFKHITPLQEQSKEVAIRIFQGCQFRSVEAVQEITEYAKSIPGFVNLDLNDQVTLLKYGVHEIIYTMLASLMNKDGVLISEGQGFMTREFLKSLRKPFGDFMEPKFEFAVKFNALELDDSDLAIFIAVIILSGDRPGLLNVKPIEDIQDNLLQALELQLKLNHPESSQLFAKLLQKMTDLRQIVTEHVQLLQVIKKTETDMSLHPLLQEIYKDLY

PPARδ [1] = target: T3, PPARδ (Homo sapiens, UniProt Q03181); assay: TR-FRET PPARδ coactivator assay; format: biochemical; conditions: compound alone
T3 sequence (Q03181 211-439 limits assumed): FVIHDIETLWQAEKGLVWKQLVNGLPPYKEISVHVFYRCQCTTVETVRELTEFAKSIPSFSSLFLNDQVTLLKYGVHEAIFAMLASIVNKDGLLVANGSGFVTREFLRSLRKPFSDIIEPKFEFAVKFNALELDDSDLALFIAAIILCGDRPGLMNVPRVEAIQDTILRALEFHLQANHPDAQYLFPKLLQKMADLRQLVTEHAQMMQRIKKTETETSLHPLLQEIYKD

PPARδ [2] = target: T3, PPARδ; assay: TR-FRET PPARδ corepressor assay; format: biochemical; conditions: SMRT-ID2 peptide
[3] = tested on: STZ-induced diabetic C57BL/6J mice; assay: STZ-induced diabetes mouse model; format: in vivo; conditions: oral 20 mg/kg for 5 days, male C57BL/6J
PPARδ [4] = target: T4, PPARδ (Homo sapiens, UniProt Q03181); assay: TR-FRET competitive binding assay PPARδ; conditions: concentration-response
T4 sequence (Q03181 1-441): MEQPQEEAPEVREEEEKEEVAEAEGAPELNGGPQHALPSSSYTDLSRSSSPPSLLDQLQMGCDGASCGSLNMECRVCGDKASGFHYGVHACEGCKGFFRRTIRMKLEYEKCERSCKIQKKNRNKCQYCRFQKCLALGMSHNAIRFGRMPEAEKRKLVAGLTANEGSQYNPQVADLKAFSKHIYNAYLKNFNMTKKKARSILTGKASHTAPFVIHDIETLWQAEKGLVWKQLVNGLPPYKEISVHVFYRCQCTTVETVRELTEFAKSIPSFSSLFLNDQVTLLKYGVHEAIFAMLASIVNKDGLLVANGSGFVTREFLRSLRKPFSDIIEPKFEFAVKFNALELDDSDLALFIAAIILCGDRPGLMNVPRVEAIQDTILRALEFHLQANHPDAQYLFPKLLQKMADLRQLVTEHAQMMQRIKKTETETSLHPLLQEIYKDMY

[5] = tested on: human AR-transfected murine osteoblast precursor cell line 7F2; conditions: cited from earlier work
hBM-MSCs [6] = assay: adiponectin production during adipogenesis in hBM-MSCs; conditions: for adiponectin production during adipogenesis: compared to IDX control; for adipogenesis in hBM-MSCs: compared to control
[7] = tested on: ANGPTL4 and PDK4 gene transcription; assay: Q-RT-PCR of ANGPTL4 and PDK4 mRNA in hBM-MSCs; format: cell-based, human; conditions: 3rd day after induction of adipogenesis
hBM-MSCs [8] = assay: Oil Red O staining of lipid droplets in hBM-MSCs; format: cell-based, human; conditions: compared with IDX control, 7th day

CNC(=O)[C@H]1S[C@@H](n2cnc3c(NCc4cccc(I)c4)ncnc32)[C@H](O)[C@@H]1O [Compound 1c]
replacement of labeled PPARα ligand binding (PPARα): ≤ 50%
PPARγ binding activity (PPARγ): very weak binding activity
recruitment of labeled coactivator peptide to PPARδ (PPARδ [1]): no effect on the recruitment of the labeled coactivator peptide
interaction between PPARδ and corepressor peptide (PPARδ [2]): enhanced the interaction of PPARδ with the corepressor peptide
serum glucose levels [3]: significantly decreased serum glucose levels
serum triglyceride levels [3]: downregulated serum triglyceride levels

CNC(=O)[C@H]1S[C@@H](n2cnc3c(NCc4cccc(I)c4)nc(Cl)nc32)[C@H](O)[C@@H]1O [Compound 1d]
PPARδ binding activity (PPARδ [4]): most potent inhibitor among A3 AR agonists

OC[C@H]1O[C@@H](n2cnc3c(NC4CCCC4)nc(Cl)nc32)[C@H](O)[C@@H]1O [Compound 14, 2-chloro-N^6-cyclopentyladenosine]
increase of adipocyte differentiation [5]: 20–30%
adiponectin production during adipogenesis (hBM-MSCs [6]): no significant effect
adipogenesis in hBM-MSCs (hBM-MSCs [6]): did not significantly promote adipogenesis

CCNC(=O)[C@H]1O[C@@H](n2cnc3c(N)ncnc32)[C@H](O)[C@@H]1O [Compound 15, 5′-(N-ethylcarboxamido) adenosine]
increase of adipocyte differentiation [5]: 20–30%
adiponectin production during adipogenesis (hBM-MSCs [6]): no significant effect
adipogenesis in hBM-MSCs (hBM-MSCs [6]): did not significantly promote adipogenesis

CCNC(=O)[C@H]1O[C@@H](n2cnc3c(N)nc(NCCc4ccc(CCC(=O)O)cc4)nc32)[C@H](O)[C@@H]1O [Compound 16, 2-p-(2-carboxyethyl)phenethylamino-5′-N-ethylcarboxamidoadenosine hydrochloride hydrate]
adiponectin production during adipogenesis (hBM-MSCs [6]): no significant effect

CNC(=O)[C@@]12C[C@@H]1[C@@H](n1cnc3c(NCc4cccc(Cl)c4)nc(C#Cc4ccc(F)c(F)c4)nc31)[C@H](O)[C@@H]2O [Compound 17, (1S,2R,3S,4R,5S)-4-[6-[[(3-chlorophenyl)methyl]-amino]-2-[2-(3,4-difluorophenyl)ethynyl]-9H-purin-9-yl]-2,3-dihydroxy-N-methylbicyclo[3.1.0]hexane-1-carboxamide]
adipogenesis in hBM-MSCs (hBM-MSCs [6]): no effect on adipogenesis

CCCn1cc2c(nc(NC(=O)Nc3ccc(OC)cc3)n3nc(-c4ccco4)nc23)n1 [Compound 18, N-[2-(2-furanyl)-8-propyl-8H-pyrazolo[4,3-e][1,2,4]triazolo[1,5-c]pyrimidin-5-yl]-N′-(4-methoxyphenyl)-urea]
adipogenesis in hBM-MSCs (hBM-MSCs [6]): no effect on adipogenesis

Cc1cc(SCc2sc(-c3ccc(C(F)(F)F)cc3)nc2C)ccc1OCC(=O)O [Compound 22, 2-[2-methyl-4-[[[4-methyl-2-[4-(trifluoromethyl)phenyl]-5-thiazolyl]methyl]thio]phenoxy]acetic acid]
ANGPTL4 mRNA level [7]: significantly increased ANGPTL4 and PDK4 gene transcription
PDK4 mRNA level [7]: significantly increased ANGPTL4 and PDK4 gene transcription

COC(=O)c1sccc1S(=O)(=O)Nc1ccc(Nc2ccccc2)cc1OC [Compound 23, 3-[[[2-methoxy-4-(phenylamino)phenyl]-amino]sulfonyl]-2-thiophenecarboxylic acid methyl ester]
ANGPTL4 mRNA level [7]: did not affect ANGPTL4 and PDK4 mRNA levels
PDK4 mRNA level [7]: did not affect ANGPTL4 and PDK4 mRNA levels

O=C(NCCS(=O)(=O)c1ccc(C(F)(F)F)cn1)c1ccc(Cl)cc1 [Compound 24, 4-chloro-N-[2-[[5-(trifluoromethyl)-2-pyridinyl]sulfonyl]ethyl]benzamide]
interaction between PPARδ and corepressor peptide (PPARδ [2]): significantly promoted the recruitment of the corepressor peptide
ANGPTL4 mRNA level [7]: did not affect ANGPTL4 and PDK4 mRNA levels
PDK4 mRNA level [7]: did not affect ANGPTL4 and PDK4 mRNA levels

Nc1ncnc2c1ncn2[C@@H]1O[C@H](CO)[C@@H](O)[C@H]1O [adenosine]
adiponectin production during adipogenesis (hBM-MSCs [6]): no significant effect

Cn1c(=O)c2c(ncn2C)n(C)c1=O [caffeine]
lipid droplets in differentiated adipocytes (ORO staining) (hBM-MSCs [8]): decreased them
adipogenesis in hMSCs (hBM-MSCs [6]; 1 mM): inhibited adipogenesis

COc1ccc(Cl)cc1C(=O)NCCc1ccc(S(=O)(=O)NC(=O)NC2CCCCC2)cc1 [glibenclamide]
PPARγ binding activity (PPARγ): showed PPARγ binding activity
